According to US20010048926A1, “SYNTHETIC PEPTIDE VACCINES FOR DENTAL CARIES” (priority 1992, published 2001):

Key:
[1] = system: inducing peptide construct; experiment: ELISA of salivary IgA antibody to the inducing (homologous) peptide construct in immunized rats; assay type: in vivo, Sprague Dawley rats; conditions: for rats with significant levels of salivary IgA antibody: GGY- and AND-injected rats counted together; for Salivary IgA antibody levels to GGY: pre-infection saliva
Description: (§1) Immunogenicity of Peptides: Sprague Dawley CD strain 43 day-old male rats (Charles River Laboratories) were used for injection. Six groups of 4-5 rats were injected subcutaneously in the vicinity of the salivary glands with 50 μg each of GGY, AND, SAND or CAT peptide constructs, 10 μg of GTF, or sham-immunized with buffer alone. The initial injection included complete Freund adjuvant (CFA; Difco); two subsequent injections at 21-day intervals included incomplete Freund adjuvant. Animals were bled prior to injection and 14-21 days after each injection. Serum from coagulated and centrifuged blood was stored frozen at −20° C. until use.
ELISA: Serum IgG and salivary IgA antibodies were tested by enzyme-linked immunosorbent assay (ELISA). Polystyrene microtiter plates (Flow Laboratories) were coated with […] of each peptide construct or 0.5 μg of S. sobrinus GTF. Antibody activity was then measured by incubation with 1:100 to 1:10^6 dilutions of sera, or 1:4 to 1:32 dilutions of saliva. Plates were then developed for IgG antibody rabbit anti-rat IgG followed in sequence by alkaline phosphatase goat anti-rabbit IgG (Biosource Inc.) and p-nitrophenylphosphate (Sigma). A mouse monoclonal reagent to rat α chain (Zymed, South San Francisco, Calif.) was used with biotinylated goat anti-mouse IgG (TAGO, Inc., Burlingame, Calif.) and avidin-alkaline phosphatase (Cappel) to reveal levels of salivary IgA antibody to peptides. Reactivity was recorded as absorbance (A405 nm) in a micro plate reader (Biotek Instruments). Data are reported as absorbance (A405 nm), reciprocal titer, or as ELISA units (EU) which were calculated relative to the levels of appropriate reference sera or salivas from Sprague Dawley rats thrice immunized with the respective peptide construct. Dilutions of 1:12,800 and 1:6,400 (A405 nm approximately 1.0) were considered 100 EU for serum IgG to the GGY and AND constructs, respectively. Dilutions of 1:32 were considered 100 EU for salivary IgA to both GGY and AND constructs.
(§2) Two experiments were performed. Groups (n=11-12) of 23-26 day-old rats were subcutaneously (sc) injected in the salivary gland vicinity with (experiment 1) GGY (50 μg), AND (50 μg) or GTF(10 μg), or phosphate buffered saline (control animals), or (experiment 2) GGY (50 ;μg) or PBS. Each antigen was incorporated with complete Freund adjuvant in both experiments. Eight (experiment 1) or 14 (experiment 2) days later, rats were reinjected with PBS or with the same antigen and dose in incomplete Freund adjuvant. Six (experiment 1) or 12 (experiment 2) days after the second injection, animals were bled from the tail vein, and saliva was collected after injection of pilocarpine (1.0 mg/100 g body weight). Fourteen (experiment 1) or 11 (experiment 2) days after the second injection, all rats were orally infected with approximately 10^8 S. mutans for 3 consecutive days. Both experiments were terminated 63 days after initial infection.
Two experiments were performed to measure the effect of immunization with the eight-branched GGY and AND peptide constructs on experimental dental caries in the Sprague-Dawley rat. In the first experiment, groups of rats were immunized with GGY or AND peptide constructs. In the second experiment groups of rats were immunized only with the GGY peptide construct. Pre-infection sera and salivas were collected for antibody measurement in 39 day old rats in experiment 1 (6 days after the second injection) and 51 day old rats in experiment 2 (12 days after the second injection). In the GGY-immunized rat groups, IgG antibody levels to GGY (experiment 1=21.9+17.8 EU; experiment 2=108.0±4.0 EU) were elevated above those of the sham-immunized groups (experiment 1=1.7±0.2 EU; experiment 2=4.0±3.0 EU) in both experiments and reached statistical significance (p<0.002) in experiment 2.

[2] = target: T1, AND peptide construct (Streptococcus mutans serotype c, UniProt P08987); experiment: Cross-reactivity ELISA, plates coated with AND peptide construct; assay type: binding; conditions: day 63 sera; FIG. 4
T1 construct: GGY and AND were 19-mer peptides; purchased Applied Diagnostics, Foster City, Calif; host or cells: chemical solid phase synthesis
Description: as §1
ELISA: Serum IgG and salivary IgA antibodies were tested by enzyme-linked immunosorbent assay (ELISA). Polystyrene microtiter plates (Flow Laboratories) were coated with […] of each peptide construct or 0.5 μg of S. sobrinus GTF. Antibody activity was then measured by incubation with 1:100 to 1:10^6 dilutions of sera, or 1:4 to 1:32 dilutions of saliva. […] Reactivity was recorded as absorbance (A405 nm) in a micro plate reader (Biotek Instruments). Data are reported as absorbance (A405 nm), reciprocal titer, or as ELISA units (EU) which were calculated relative to the levels of appropriate reference sera or salivas from Sprague Dawley rats thrice immunized with the respective peptide construct. […]

[3] = system: S. sobrinus GTF; experiment: Antibody inhibition of glucan synthesis (filter assay, 14C glucose incorporation into water-insoluble glucan); assay type: biochemical, S. sobrinus strain 6715
Text: Glucosyltransferases: Glucosyltransferases (GTF) from S. sobrinus strain 6715 were purified from culture supernatants after bacterial growth in glucose-containing defined media, as described in Taubman et al. (J. Oral Pathol. 17:466-470 (1988)). Enzymes were separated from other culture supernatant proteins by affinity chromatography on Sephadex G-100 (Pharmacia Fine Chemicals), using 6M guanidine HCl as the eluting solvent. GTFs were then obtained from the guanidine HCl eluate by FPLC chromatography on Superose 6 (Pharmacia) using 6M guanidine for elution. GTF preparations contained a mixture of GTF-I, GTF-Sd, and GTF-Si.
Antibody Inhibition of Glucan Synthesis: Selected rat sera were evaluated for their ability to inhibit glucan synthesis catalyzed by S. sobrinus GTF, using a filter assay. Ten μl volumes of sera (1:100 dilutions in 0.02M sodium phosphate buffered saline and 0.02% sodium azide [PBSA], pH 6.5) were preincubated with the respective GTF for 1 hour at 37° C. in a total volume of 0.04 ml PBSA. Then 1.7 mg sucrose, 44 nCi of [^14C-glucose]-sucrose (approximately 100,000 cpm) were added in 0.2 ml PESA in the presence of 37 μg of dextran T10 (Pharmacia). Incubation proceeded for 18 hours at 37° C., after which water-insoluble glucan was collected on Whatman GF/F glass fiber filters, washed with PBSA, and radioactivity determined as described in Smith et al. (Infect. Immunity 62:5470-5476 (1994)).

[4] = system: S. mutans SJ32; experiment: Protection experiments: caries assessment (modified Keyes method) after S. mutans infection; assay type: in vivo, Sprague-Dawley rats
Text: Experimental Protocol for Protection Experiments: Animals used in the present experiments were derived from germ-free Sprague-Dawley rats that had been reared in the isolator facility of Charles River Laboratories, Wilmington, Mass. (Area 051). […] These rats served as initial breeding stock for dams used in these experiments and were regularly monitored for absence of mutans streptococci. The progeny of the dams used for the present experiments were weaned at approximately 21 days and were subsequently fed high sucrose Diet 2000.
as §2
Caries assessment: The extent and depth of carious lesions in all rat molar teeth (caries score) were microscopically evaluated by a modified Keyes method as previously described (Taubman et al., J. Immunol. 118:710-720 (1977)). Caries scores were determined separately on smooth and on sulcal dental surfaces.

GGYEFLLANDVDNSNPVVQ
rats with significant levels of salivary IgA antibody ([1]; day 21 (one injection)): 7/9 | rats with significant levels of salivary IgA antibody ([1]; day 63 (three injections)): 8/9 | Salivary IgA antibody levels to GGY ([1]; protection experiment 1, 39 day old rats): 5.0±2.0 EU | Salivary IgA antibody levels to GGY ([1]; protection experiment 2, 51 day old rats): 11.7±4.8 EU | reaction of serum IgG antibody with the AND peptide construct [2]: significant reaction | inhibition of formation of water-insoluble glucan from sucrose by S. sobrinus GTF (in words) ([3]; 63 day sera from injected rats, AND p<0.01, FIG. 5): more variable | inhibition of GTF activity ([3]; one rat serum, 63 day, relative to mean of sham sera): 35% | mean and median total, smooth surface, and occlusal caries scores vs sham-injected group ([4]; both experiments): lower than the respective scores of the sham-injected group | Total molar caries scores vs sham-injected groups ([4]; both experiments, p<0.05): significantly lower | smooth surface caries vs sham-injected group ([4]; experiment 1, GGY p<0.032, GTF p<0.045): Protection was most evident on smooth surfaces | smooth surface caries vs sham-injected group ([4]; experiment 2, p<0.027): Protection was most evident on smooth surfaces | protection after infection of rats with cariogenic S. mutans ([4]; summary statement): significant protection
